Test results reported in patent US4525475A, “Prevention of thrombolic disorder with imidazole derivatives and salts thereof” (priority 1979, dated 1985).
Read-outs that look alike come from different tables or passages of the source.

Key:
PGE, PGF and PGD = test: Selectivity: amount of PGE, PGF and PGD produced, measured in a similar manner to the thromboxane test; type: biochemical, horse; set-up: key: 0: no selectivity; +: low selectivity; ++: medium selectivity; +++: high selectivity; ++++: exceptionally high selectivity; conditions: greater selectivity = more anti-aggregating prostaglandins produced
Procedure: (§1) Horse platelets were prepared from whole horse blood by differential centrifugation. Approximately 10^6 platelets were homogenised in 1 ml 100 mM Tris buffer pH 7.4. Various concentrations of active compound were added and the reaction sets incubated for 5 minutes at ambient temperature. To each tube was added 20 nM of arachidonic acid containing 10^6 disintegrations per minute (DPM) of labelled arachidonic acid and the tubes incubated for 3 minutes at 37° C. in a shaking water bath. After incubation the radioactive products were extracted from the acidified aqueous phase with ethyl acetate and after concentration resolved by thin layer chromatography on silica gel with chloroform/methanol/acetic acid/water (90:8:1:0.8) as a developing solvent. The amount of thromboxane produced was measured by scraping the radioactive zone corresponding to thromboxane B2 and estimating the radioactivity in a liquid scintillation counter.
The selectivity of the active compounds was measured in a similar manner to that described above and the amount of PGE, PGF and PGD produced was determined. The greater the selectivity, the more of the anti-aggregating prostaglandins are produced.
The ED50 and Selectivity results are shown in Table A in which 0 indicates no selectivity; +low selectivity; ++medium selectivity; +++high selectivity: ++++exceptionally high selectivity; ND not determined.

TXA2 synthetase = target: T1, TXA2 synthetase (Equus caballus, UniProt A0A9L0T8T9); test: Inhibition of TXA2 synthetase: thromboxane (thromboxane B2) produced from labelled arachidonic acid by homogenised horse platelets; type: biochemical; conditions: horse platelet homogenate, 100 mM Tris buffer pH 7.4, 5 min preincubation at ambient temperature, 3 min at 37° C. with arachidonic acid
T1 construct: labelled arachidonic acid as substrate, thromboxane B2 measured by TLC
T1 sequence (A0A9L0T8T9 2-534): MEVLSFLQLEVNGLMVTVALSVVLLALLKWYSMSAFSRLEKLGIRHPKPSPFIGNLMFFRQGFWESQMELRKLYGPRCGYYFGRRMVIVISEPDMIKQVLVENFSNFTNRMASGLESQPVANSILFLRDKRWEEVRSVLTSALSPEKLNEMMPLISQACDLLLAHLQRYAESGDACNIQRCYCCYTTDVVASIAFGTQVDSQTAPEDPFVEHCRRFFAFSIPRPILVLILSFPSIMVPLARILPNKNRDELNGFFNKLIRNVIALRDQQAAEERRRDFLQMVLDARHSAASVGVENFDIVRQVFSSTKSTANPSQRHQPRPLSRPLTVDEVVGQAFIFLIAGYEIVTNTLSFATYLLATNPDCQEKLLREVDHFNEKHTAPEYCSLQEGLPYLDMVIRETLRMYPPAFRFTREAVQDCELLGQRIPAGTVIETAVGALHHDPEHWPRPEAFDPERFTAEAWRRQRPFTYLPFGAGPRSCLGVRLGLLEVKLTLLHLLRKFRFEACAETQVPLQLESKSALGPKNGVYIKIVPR
Procedure: as §1
The concentration of active compound to reduce the enzyme activity by 50% (ED50) was established.

serum cholesterol = conditions: U.K. Pat. No. 1 364 312; Biochem. Pharmacol., 24, 1902-1903, 1975; cited from earlier work
[1] = test system: enzymic conversion of the endoperoxides (PGG2 and PGH2) to thromboxane A2 by platelet microsomes; conditions: Moncada et al., Prostaglandins, 13/4, 611-618, 1977; cited from earlier work
[2] = read-out: ED50 (concentration of active compound to reduce the enzyme activity by 50%) (converted)

Row | IC50 (TXA2 synthetase; [2]) [µM] | SMILES | Selectivity (PGE, PGF and PGD) | lowering serum cholesterol levels (serum cholesterol) | inhibition of the enzymic conversion of the endoperoxides to thromboxane A2 [1] | IC50 (TXA2 synthetase; read-out: ED50 (concentration of active compound to reduce the enzyme activity by 50%)) [µM]
1 | < 57.4 | c1cn(CC2C3CC4C(C3)C24)cn1 (centres unmarked) [15 (c), 1-(Tricyclo[2.2.1.0^3,5]heptan-2-ylmethyl)imidazole] | +++ | – | – | –
2 | – | CCCCCCCCCCCCn1ccnc1 [1-n-dodecylimidazole] | – | capable of lowering serum cholesterol levels | – | –
3 | > 225 | c1cn(CC2COC3(CCCCC3)O2)cn1 (centres unmarked) [Example 10, 1-(1,4-Dioxaspiro[4.5]decan-2-ylmethyl)imidazole] | – | – | – | –
4 | 290 | c1cn(C2CC3CCC2C3)cn1 (centres unmarked) [Example 11, 1-(Bicyclo[2.2.1]heptan-2-yl)imidazole] | – | – | – | –
5 | 19.7 | CC1(C)C2CCC(CCn3ccnc3)C1C2 (centres unmarked) [Example 1, 1-[2-(6,6-dimethylbicyclo[3.1.1]heptan-2-yl)ethyl]imidazole] | +++ | – | – | –
6 | 28.4 | c1cn(CC2CC3CCC2C3)cn1 (centres unmarked) [Example 4, 1-(Bicyclo[2.2.1]heptan-2-ylmethyl)imidazole] | +++ | – | – | –
7 | < 69.3 | CC1(C)C(=CCn2ccnc2)C2CCC1C2 (centres unmarked) [15 (b), 1-[2-(3,3-Dimethylbicyclo[2.2.1]heptan-2-ylidene)ethyl]imidazole] | – | – | – | –
8 | 74.1 | CC1(C)C2CC=C(Cn3ccnc3)C1C2 (centres unmarked) [Example 7, 1-(6,6-Dimethylbicyclo[3.1.1]hept-2-en-2-ylmethyl)imidazole] | +++ | – | – | –
9 | 89.2 | C1=CC2CC1CC2CC(C1CC2C=CC1C2)n1ccnc1 (centres unmarked) [Example 13, 1-{1,2-[Bis-(bicyclo[2.2.1]hept-5-en-2-yl)]ethyl}imidazole] | ++ | – | – | –
10 | 57.4 | C1=CC2CC1CC2Cn1ccnc1 (centres unmarked) [Example 3, 1-(Bicyclo[2.2.1]hept-5-en-2-ylmethyl)imidazole] | +++ | – | – | –
11 | 16.2 | CC1(C)C2CC=C(CCn3ccnc3)C1C2 (centres unmarked) [Example 2, 1-[2-(6,6-Dimethylbicyclo[3.1.1]hept-2-en-2-yl)ethyl]imidazole] | +++ | – | – | –
12 | 24.5 | CC1(C)C2CCC(Cn3ccnc3)C1C2 (centres unmarked) [Example 8, 1-(6,6-Dimethylbicyclo[3.1.1]heptan-2-ylmethyl)imidazole] | +++ | – | – | –
13 | – | c1c[nH]cn1 [Imidazole] | – | – | some degree of inhibition | ≥ 7340
14 | 65.1 | c1cn(CCC23CC4CC(CC(C4)C2)C3)cn1 [Example 9, 1-[2-(Adamantan-1-yl)ethyl]imidazole] | ++++ | – | – | –

Row | SMILES | IC50 (TXA2 synthetase; [2]) [µM] | Selectivity (PGE, PGF and PGD) | lowering serum cholesterol levels (serum cholesterol) | inhibition of the enzymic conversion of the endoperoxides to thromboxane A2 [1] | IC50 (TXA2 synthetase; read-out: ED50 (concentration of active compound to reduce the enzyme activity by 50%)) [µM]
15 | c1cn(CC2CN3CCC2CC3)cn1 (centres unmarked) [Example 12, 1-(1-Azabicyclo[2.2.2]octan-3-ylmethyl)imidazole] | 157 | ++ | – | – | –
16 | Cn1ccnc1 [1-Methylimidazole, reference compound] | ≥ 2440 | ++ | – | some degree of inhibition | –
